Results from patent US20250313563A1, “GLYCOGEN SYNTHASE KINASE 3 INHIBITORS AND USES THEREOF” (The Broad Institute, Inc., priority 2022, published 2025).
Like-named read-outs stand apart in the source and are kept apart here.

Legend:
[1] = target: GSK3α (GST-full length GSK3α) (Homo sapiens (Human), UniProt P49840); test: GSK3α TR-FRET kinase assay; assay type: biochemical
Procedure: (§1) TR-FRET Assay: The assay was performed in a white, 384 well, low volume, flat bottom plate (Grenier). After a 30 minute preincubation in assay buffer with the indicated concentration of compound, the kinase activity was initiated by the addition of the substrates. 1 nM GSK3α (GST-full length GSK3α [SignalChem G08-10G]) or 1 nM GSK3b (GST-full length GSK3b: [SignalChem G08-9G]) were then incubated at ambient temperature for 100 minutes in 10 μL of 50 mM Tris, pH 7.5, 20 mM MgCl2, 0.05 mM DTT, 100 μg/mL BSA and 1% DMSO, with 200 nM biotinylated peptide substrate (biotinylated and S645 phosphorylated glycogen synthase 631-650) and either 4 μM ATP (GSK3α, Table 16) or 2 μM ATP (GSK3b, Table 16) or 1 mM ATP (Table 17). The kinase activity was quenched with 2 μL of 250 mM EDTA. A 10 μL volume of 40 nM Strepavidin-d2, 2 nM Tb^2+-pSer641 antibody in TR-FRET Detection Buffer (Invitrogen) was then added. After 60 min at room temperature the plate was read on Envision plate reader using Ex: 340 nm, Em: 615 nm and […]. The normalized 665/615 Signal ratio versus log compound concentration was analyzed by XLFIT to yield IC50 values.

[2] = target: GSK3b (GST-full length GSK3b) (Homo sapiens (Human), UniProt P49841); test: GSK3b TR-FRET kinase assay; assay type: biochemical
Procedure: as §1

[3] = 1 nM GSK3α, 4 μM ATP, 30 minute preincubation, geometric mean, read-out: GSK3-A TR-FRET BIOCHEMICAL (TR-FRET), GMean, IC50
[4] = 1 nM GSK3b, 2 μM ATP, 30 minute preincubation, geometric mean, read-out: GSK3-B TR-FRET BIOCHEMICAL (TR-FRET), GMean, IC50
[5] = 1 nM GSK3α, 4 μM ATP, 30 minute preincubation, Table 16, read-out: GSK3-A TR-FRET BIOCHEMICAL (TR-FRET), IC50
[6] = 1 nM GSK3b, 2 μM ATP, 30 minute preincubation, Table 16, read-out: GSK3-B TR-FRET BIOCHEMICAL (TR-FRET), IC50
[7] = GSK3-A (TR-FRET 1 mM ATP), GMean, IC50, 1 mM ATP, geometric mean
[8] = GSK3-B (TR-FRET 1 mM ATP), GMean, IC50, 1 mM ATP, geometric mean
[9] = 1 nM GSK3α, 4 μM ATP, 30 minute preincubation, Table 16, read-out: GSK3-A TR-FRET BIOCHEMICAL (TR-FRET)
[10] = 1 nM GSK3b, 2 μM ATP, 30 minute preincubation, Table 16, read-out: GSK3-B TR-FRET BIOCHEMICAL (TR-FRET)
[11] = read-out: GSK3-A (TR-FRET 1 mM ATP), GMean, IC50, 1 mM ATP, geometric mean
[12] = read-out: GSK3-B (TR-FRET 1 mM ATP), GMean, IC50, 1 mM ATP, geometric mean

GSK3b (GST-full length GSK3b), sequence (P49841 whole entry): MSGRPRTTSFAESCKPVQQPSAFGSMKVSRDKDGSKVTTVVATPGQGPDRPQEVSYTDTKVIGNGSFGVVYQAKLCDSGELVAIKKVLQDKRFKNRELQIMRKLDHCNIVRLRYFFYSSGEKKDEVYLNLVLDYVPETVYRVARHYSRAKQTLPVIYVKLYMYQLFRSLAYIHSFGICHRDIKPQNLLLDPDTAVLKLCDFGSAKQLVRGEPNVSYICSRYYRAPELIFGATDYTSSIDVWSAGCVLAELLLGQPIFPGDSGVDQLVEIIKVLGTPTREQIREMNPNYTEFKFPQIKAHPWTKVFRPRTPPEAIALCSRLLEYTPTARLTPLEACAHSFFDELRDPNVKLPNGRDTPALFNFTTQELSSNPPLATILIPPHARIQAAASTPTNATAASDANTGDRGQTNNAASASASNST
GSK3α (GST-full length GSK3α), sequence (P49840 whole entry): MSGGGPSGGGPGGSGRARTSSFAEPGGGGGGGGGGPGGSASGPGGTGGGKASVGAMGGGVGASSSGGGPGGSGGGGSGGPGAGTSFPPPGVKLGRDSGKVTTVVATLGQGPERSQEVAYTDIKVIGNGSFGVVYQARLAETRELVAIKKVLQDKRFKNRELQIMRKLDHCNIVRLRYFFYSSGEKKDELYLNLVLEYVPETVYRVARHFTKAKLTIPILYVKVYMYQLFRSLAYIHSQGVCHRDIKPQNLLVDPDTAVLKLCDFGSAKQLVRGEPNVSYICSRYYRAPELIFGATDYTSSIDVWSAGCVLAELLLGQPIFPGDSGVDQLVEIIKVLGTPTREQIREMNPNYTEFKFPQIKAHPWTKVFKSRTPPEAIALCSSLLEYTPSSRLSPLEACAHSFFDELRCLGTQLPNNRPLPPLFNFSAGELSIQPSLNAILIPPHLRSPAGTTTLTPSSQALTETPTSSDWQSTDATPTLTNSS

SMILES | IC50 [1, 3] [nM] | IC50 [2, 4] [nM] | IC50 [1, 7] [nM] | IC50 [2, 8] [nM] | IC50 [1, 11] [nM] | IC50 [2, 12] [nM] | further results
CCC1(c2cccc(C(F)(F)F)c2)C2=C(CC(C)CC2=O)Nc2n[nH]cc21 (mixture of isomers) [Compound 801397] | ≤ 100 | 100 to 1000 | – | – | – | – | –
CCC1(c2cccc(Br)c2)C2=C(CC(C)(C)C(F)C2=O)Nc2n[nH]cc21 (mixture of isomers) [Compound 826764] | ≤ 100 | 100 to 1000 | – | – | – | – | –
CCC1(c2cccc(N3CCCC3C)c2)C2=C(CC(C)(C)CC2=O)Nc2n[nH]cc21 (mixture of isomers) [Compound 885188] | – | – | – | – | – | – | IC50 [1, 5]: 100 to 1000 nM; IC50 [2, 6]: 100 to 1000 nM
CCC1(c2cccc(N3CCCCC3C)c2)C2=C(CC(C)(C)CC2=O)Nc2n[nH]cc21 (mixture of isomers) [Compound 885217] | – | – | – | – | – | – | IC50 [1, 5]: 100 to 1000 nM; IC50 [2, 6]: 100 to 1000 nM
CCC1(c2cccc(-c3ccncc3C)c2)C2=C(CC(C)(COC)NC2=O)Nc2n[nH]cc21 (mixture of isomers) [Compound 948127] | 100 to 1000 | > 5000 | – | – | – | – | –
CCC1(c2cccc(C(F)(F)F)c2)C2=C(Nc3n[nH]cc31)C(F)C(C)(C)CC2=O (single isomer, unassigned) [Compound 837683, 4-ethyl-8-fluoro-7,7-dimethyl-4-(3-(trifluoromethyl)phenyl)-2,4,6,7,8,9-hexahydro-5H-pyrazolo[3,4-b]quinolin-5-one] | ≤ 100 | 100 to 1000 | 100 to 1000 | > 5000 | – | – | –
CCC1(c2cccc(C(F)(F)F)c2)C2=C(Nc3n[nH]cc31)C(F)C(C)(C)CC2=O (single isomer, unassigned) [Compound 837753, 4-ethyl-8-fluoro-7,7-dimethyl-4-(3-(trifluoromethyl)phenyl)-2,4,6,7,8,9-hexahydro-5H-pyrazolo[3,4-b]quinolin-5-one] | 100 to 1000 | > 5000 | > 5000 | > 5000 | – | – | –
CCC1(c2cccc(C(F)(F)F)c2)C2=C(Nc3n[nH]cc31)C(F)C(C)(C)CC2=O (single isomer, unassigned) [Compound 837803, 4-ethyl-8-fluoro-7,7-dimethyl-4-(3-(trifluoromethyl)phenyl)-2,4,6,7,8,9-hexahydro-5H-pyrazolo[3,4-b]quinolin-5-one] | 1000 to 5000 | > 5000 | > 5000 | > 5000 | – | – | –
CCC1(c2cccc(-c3cn(C)nc3C)c2)C2=C(Nc3n[nH]cc31)C(F)C(C)(C)CC2=O (single isomer, unassigned) [Compound 947650, 4-(3-(1,3-dimethyl-1H-pyrazol-4-yl)phenyl)-4-ethyl-8-fluoro-7,7-dimethyl-2,4,6,7,8,9-hexahydro-5H-pyrazolo[3,4-b]quinolin-5-one] | – | – | 100 to 1000 | > 5000 | – | – | IC50 [1, 9]: ≤ 100 nM; IC50 [2, 10]: ≤ 100 nM
CCC1(c2cccc(-c3cn(C)nc3C)c2)C2=C(Nc3n[nH]cc31)C(F)C(C)(C)CC2=O (single isomer, unassigned) [Compound 947652, 4-(3-(1,3-dimethyl-1H-pyrazol-4-yl)phenyl)-4-ethyl-8-fluoro-7,7-dimethyl-2,4,6,7,8,9-hexahydro-5H-pyrazolo[3,4-b]quinolin-5-one] | – | – | 100 to 1000 | > 5000 | – | – | IC50 [1, 9]: ≤ 100 nM; IC50 [2, 10]: 100 to 1000 nM
CCC1(c2cccc(-c3cn(C)nc3C)c2)C2=C(Nc3n[nH]cc31)C(F)C(C)(C)CC2=O (single isomer, unassigned) [Compound 947653, 4-(3-(1,3-dimethyl-1H-pyrazol-4-yl)phenyl)-4-ethyl-8-fluoro-7,7-dimethyl-2,4,6,7,8,9-hexahydro-5H-pyrazolo[3,4-b]quinolin-5-one] | – | – | – | – | – | – | IC50 [1, 9]: ≤ 100 nM; IC50 [2, 10]: 100 to 1000 nM
CC1(C)CC(=O)C2=C(C1)Nc1n[nH]cc1[C@]21CO[C@@H](C2CC2)C1 (stereo in doubt) [Compound 913185] | – | – | – | – | – | – | IC50 [1, 9]: 100 to 1000 nM; IC50 [2, 10]: 1000 to 5000 nM
CC(C)(C)Cc1[nH]nc2c1C1(CN(C(=O)OCc3ccccc3)C1)C1=C(CC(C)(C)CC1=O)N2 [Compound 90330] | – | – | – | – | > 5000 | > 5000 | –
CC(C)(C)Cc1[nH]nc2c1C1(CCN(c3ccccc3)CC1)C1=C(CC(C)(C)CC1=O)N2 [Compound 92315] | – | – | – | – | > 5000 | > 5000 | –
CC(C)(C)Cc1[nH]nc2c1[C@@](C)(c1cccc(S(=O)(=O)CC3CC3)c1)C1=C(CC(C)(C)NC1=O)N2 [Compound 108006] | – | – | – | – | > 5000 | > 5000 | –
CC(C)(C)Cc1[nH]nc2c1C(C)(c1cccc(S(=O)(=O)N3CCCC3)c1)C1=C(CC(C)(C)NC1=O)N2 (stereo not drawn) [Compound 108791] | – | – | – | – | 1000 to 5000 | 100 to 1000 | –
CC(C)(C)Cc1[nH]nc2c1[C@@](C)(c1cccc(S(=O)(=O)N3CCCC3)c1)C1=C(CC(C)(C)NC1=O)N2 [Compound 108794] | – | – | – | – | > 5000 | > 5000 | –
COc1cncc(F)c1-c1cccc([C@@]2(C)C3=C(CC(C)(C)CC3=O)Nc3n[nH]c(CC(C)(C)C)c32)c1 [Compound 108956] | – | – | – | – | > 5000 | 1000 to 5000 | –
CC1(C)CC2=C(C(=O)N1)[C@](C)(c1cccc(S(C)(=O)=O)c1)c1c(n[nH]c1C1CC1)N2 [Compound 114744] | – | – | > 5000 | > 5000 | – | – | –
